Data reported in patent US7786141B2 (Vertex Pharmaceuticals Incorporated, priority 2004, dated 2010).

Assays:
M1 muscarinic receptor = biological target: T1, M1 muscarinic receptor (Homo sapiens, UniProt P11229); assay: Functional mobilization of intracellular calcium (FLIPR) in M1-CHO cells; assay type: cell-based; conditions: Table 4; for Emax: 100% efficacy is the maximum response obtained with the Carbachol control; for M1 Activity: modulating M1 receptor
T1 construct: expressed in transfected cells; host or cells: CHO (M1-CHO)
T1 sequence (P11229 1-460): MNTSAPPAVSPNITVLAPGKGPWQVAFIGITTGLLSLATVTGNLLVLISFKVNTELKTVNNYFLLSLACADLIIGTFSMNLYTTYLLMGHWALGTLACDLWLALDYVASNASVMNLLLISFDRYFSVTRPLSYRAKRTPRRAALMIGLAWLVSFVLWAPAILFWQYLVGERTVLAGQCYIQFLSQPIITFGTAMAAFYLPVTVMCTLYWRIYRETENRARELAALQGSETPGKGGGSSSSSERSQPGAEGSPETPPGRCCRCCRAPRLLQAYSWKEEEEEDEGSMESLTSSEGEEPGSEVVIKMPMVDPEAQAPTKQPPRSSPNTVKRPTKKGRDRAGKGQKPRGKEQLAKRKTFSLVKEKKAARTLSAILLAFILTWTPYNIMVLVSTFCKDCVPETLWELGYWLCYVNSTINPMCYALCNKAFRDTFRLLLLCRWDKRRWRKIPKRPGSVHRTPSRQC
Procedure, shortened: (§1)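 Measured via Fluo-3 fluorescence on a FLIPR, CHO cells with either muscarinic subtype received compound in 0.5% DMSO. Antagonism was assessed after 15 min pre-incubation followed by carbachol at each subtype's EC80; agonism from compound addition alone.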

M4 muscarinic receptor = biological target: T2, M4 muscarinic receptor (Homo sapiens, UniProt P08173); assay: Functional mobilization of intracellular calcium (FLIPR) in M4-CHO cells; assay type: cell-based; conditions: Table 4; for Emax: 100% efficacy is the maximum response obtained with the Carbachol control; for M4 Activity: modulating M4 receptor
T2 construct: expressed in transfected cells; host or cells: CHO (M4-CHO)
T2 sequence (P08173 1-479): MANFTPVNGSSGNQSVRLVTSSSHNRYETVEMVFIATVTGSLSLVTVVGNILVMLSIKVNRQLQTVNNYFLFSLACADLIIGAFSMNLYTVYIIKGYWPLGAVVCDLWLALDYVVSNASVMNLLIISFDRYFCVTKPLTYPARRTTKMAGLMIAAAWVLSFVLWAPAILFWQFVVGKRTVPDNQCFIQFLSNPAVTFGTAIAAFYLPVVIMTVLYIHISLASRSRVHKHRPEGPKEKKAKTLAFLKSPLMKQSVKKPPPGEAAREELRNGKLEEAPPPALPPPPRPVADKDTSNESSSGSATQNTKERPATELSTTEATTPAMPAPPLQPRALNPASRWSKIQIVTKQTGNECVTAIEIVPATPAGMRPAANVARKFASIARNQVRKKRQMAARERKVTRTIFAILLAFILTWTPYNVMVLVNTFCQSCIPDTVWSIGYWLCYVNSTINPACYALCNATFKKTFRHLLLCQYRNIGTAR
Procedure, shortened: as §1

Row | Compound | Emax (M1 muscarinic receptor) | M1 Activity (M1 muscarinic receptor) | Emax (M4 muscarinic receptor) | M4 Activity (M4 muscarinic receptor)
1 | CCOC(=O)N1CCC(N2CCCC3(CC2)CN(C(C)=O)c2ccc(F)cc23)CC1 (stereo not shown) [compound 587] | 25 to 100% | xxx (activity was measured to be less than 2.0 μM) | 25 to 100% | xxx (activity was measured to be less than 2.0 μM)
2 | CN(C)C(=O)N1CC2(CCN(C3CCN(C(=O)COc4ccccc4)CC3)CC2)c2cc(F)ccc21 [compound 588] | < 25% | x (activity was measured to be greater than 5.0 μM) | < 25% | x (activity was measured to be greater than 5.0 μM)
3 | CC#CC(C)OC(=O)N1CCC(N2CCC3(CC2)CN(C(C)=O)c2ccccc23)CC1 (stereo not shown) [compound 589] | < 25% | x (activity was measured to be greater than 5.0 μM) | < 25% | x (activity was measured to be greater than 5.0 μM)
4 | CCCCC(=O)N1CCC(N2CCC3(CC2)CN(C(=O)N(C)C)c2ccc(F)cc23)CC1 [compound 590] | 25 to 100% | xx (activity was measured to be between 2.0 μM and 5.0 μM) | < 25% | xx (activity was measured to be between 2.0 μM and 5.0 μM)
5 | CCOC(=O)N1CCC(N2CCC3(CCCc4ccccc43)CC2)CC1 [compound 591] | > 100% | xxx (activity was measured to be less than 2.0 μM) | 25 to 100% | xxx (activity was measured to be less than 2.0 μM)
6 | CN(C)C(=O)N1CC2(CCN(C3CCN(C(=O)CC(F)(F)F)CC3)CC2)c2cc(F)ccc21 [compound 592] | 25 to 100% | xx (activity was measured to be between 2.0 μM and 5.0 μM) | < 25% | x (activity was measured to be greater than 5.0 μM)
7 | Cc1ccc(N2CCC(N3CCC4(CC3)CN(C(=O)N(C)C)c3ccc(F)cc34)CC2)nn1 [compound 594] | 25 to 100% | x (activity was measured to be greater than 5.0 μM) | < 25% | xx (activity was measured to be between 2.0 μM and 5.0 μM)
8 | CN(C)C(=O)N1CC2(CCN(C3CCN(C(=O)OCC4CC4)CC3)CC2)c2cc(F)ccc21 [compound 595] | 25 to 100% | xxx (activity was measured to be less than 2.0 μM) | 25 to 100% | xxx (activity was measured to be less than 2.0 μM)
9 | CCCOC(=O)N1CCC(N2CCC3(CC2)CN(CCOC)c2ccc(F)cc23)CC1 [compound 596] | 25 to 100% | xxx (activity was measured to be less than 2.0 μM) | 25 to 100% | xxx (activity was measured to be less than 2.0 μM)
10 | Cc1ccc2c(c1)C1(CCN(C3CC4CCC3C4)CC1)CN2C(=O)c1ccco1 (stereo not shown) [compound 597] | 25 to 100% | x (activity was measured to be greater than 5.0 μM) | < 25% | x (activity was measured to be greater than 5.0 μM)
11 | CCOC(=O)N1CCC(N2CCC3(CC2)CN(C(=O)N2CCCCC2)c2ccc(F)cc23)CC1 [compound 598] | 25 to 100% | xxx (activity was measured to be less than 2.0 μM) | 25 to 100% | xxx (activity was measured to be less than 2.0 μM)
12 | COc1cc2c(cc1OC)C1(CCN(C3CCCCCCCCCCC3)CC1)C[C@@H]2NC(C)=O [compound 599] | 25 to 100% | x (activity was measured to be greater than 5.0 μM) | 25 to 100% | x (activity was measured to be greater than 5.0 μM)
13 | CC(=O)N1CC2(CCN(CC3=C(C)C=CCC3(C)C)CC2)c2cc(F)ccc21 [compound 600] | < 25% | x (activity was measured to be greater than 5.0 μM) | < 25% | x (activity was measured to be greater than 5.0 μM)
14 | CC(=O)N[C@H]1CCC2(CCN(CC3CCOC3)CC2)c2ccccc21 (stereo partly shown) [compound 602] | 25 to 100% | xxx (activity was measured to be less than 2.0 μM) | 25 to 100% | xx (activity was measured to be between 2.0 μM and 5.0 μM)
15 | CCOC(=O)N1CCC(N2CCC3(CC2)CN(C(C)=O)c2ccc(C(F)(F)F)cc23)CC1 [compound 603] | 25 to 100% | xxx (activity was measured to be less than 2.0 μM) | 25 to 100% | xxx (activity was measured to be less than 2.0 μM)
16 | CCCCOC(=O)N1C2CCC1CC(N1CCC3(CC1)CN(C(C)=O)c1ccccc13)C2 (stereo not shown) [compound 604] | < 25% | x (activity was measured to be greater than 5.0 μM) | 25 to 100% | xxx (activity was measured to be less than 2.0 μM)
17 | CC(=O)N[C@H]1CCC2(CCN(CC3CCCCC3)CC2)c2ccccc21 [compound 605] | 25 to 100% | xxx (activity was measured to be less than 2.0 μM) | 25 to 100% | xxx (activity was measured to be less than 2.0 μM)
18 | CCOC(=O)N1C2CCC1CC(N1CCC3(CC1)CN(C(C)=O)c1ccc(C(C)C)cc13)C2 (stereo not shown) [compound 606] | 25 to 100% | xxx (activity was measured to be less than 2.0 μM) | 25 to 100% | xxx (activity was measured to be less than 2.0 μM)
19 | COCCOC(=O)N1C2CCC1CC(N1CCC3(CC1)CN(C(C)=O)c1ccccc13)C2 (stereo not shown) [compound 607] | 25 to 100% | xxx (activity was measured to be less than 2.0 μM) | 25 to 100% | xxx (activity was measured to be less than 2.0 μM)
20 | CN(C)C(=O)N1CC2(CCN(C[C@@H]3CCN(c4cnccn4)C3)CC2)c2cc(F)ccc21 [compound 608] | 25 to 100% | xxx (activity was measured to be less than 2.0 μM) | 25 to 100% | xxx (activity was measured to be less than 2.0 μM)
21 | O=C1CC2(CCN(C3CCCCCC3)CC2)c2ccc(Cl)cc21 [compound 609] | 25 to 100% | xx (activity was measured to be between 2.0 μM and 5.0 μM) | 25 to 100% | xxx (activity was measured to be less than 2.0 μM)
22 | CCOC(=O)N1CCC(N2CCC3(CC2)CN(C(C)=O)c2c(C)cc(C)cc23)CC1 [compound 610] | 25 to 100% | xxx (activity was measured to be less than 2.0 μM) | 25 to 100% | xxx (activity was measured to be less than 2.0 μM)
23 | CC(=O)N1CC2(CCN(C3CCN(c4cncc(C5CC5)n4)CC3)CC2)c2ccccc21 [compound 611] | 25 to 100% | xxx (activity was measured to be less than 2.0 μM) | < 25% | x (activity was measured to be greater than 5.0 μM)
24 | O=C(O)C1CC2(CCN(C3CCCCC3)CC2)c2ccccc21 (stereo not shown) [compound 612] | < 25% | x (activity was measured to be greater than 5.0 μM) | 25 to 100% | x (activity was measured to be greater than 5.0 μM)
25 | CC#CC(C)OC(=O)N1CCC(N2CCC3(CC2)CN(C(=O)N(C)C)c2ccc(F)cc23)CC1 (stereo not shown) [compound 614] | 25 to 100% | xxx (activity was measured to be less than 2.0 μM) | 25 to 100% | xxx (activity was measured to be less than 2.0 μM)
26 | CCOC(=O)N1CCC(N2CCC3(CC2)CN(C(C)=O)c2cccc(C(F)(F)F)c23)CC1 [compound 615] | 25 to 100% | xxx (activity was measured to be less than 2.0 μM) | < 25% | xx (activity was measured to be between 2.0 μM and 5.0 μM)
27 | CC(=O)NC1CCC2(CCN(CC3CCOCC3)CC2)c2ccccc21 (stereo not shown) [compound 616] | > 100% | xxx (activity was measured to be less than 2.0 μM) | 25 to 100% | x (activity was measured to be greater than 5.0 μM)
28 | CN(C)C(=O)N[C@H]1CCC2(CCN(C3CCCCCC3)CC2)c2ccccc21 [compound 617] | 25 to 100% | xx (activity was measured to be between 2.0 μM and 5.0 μM) | > 100% | xxx (activity was measured to be less than 2.0 μM)
